We go through 14 compounds from patent US12692261B2, “Substituted heterocyclic compounds and therapeutic uses thereof” (Bayer Aktiengesellschaft, priority 2020, dated 2026).

For assay [1], the target named is T1, full-length human CSNK1A1 (Homo sapiens, UniProt P48729).
T1 construct: N-terminal Glutathion-S-Transferase (GST) and full-length human CSNK1A1; purchased Life Technologies PV4174; host or cells: baculovirus infected insect cells
As to the kind of experiment: CSNK1A1 High ATP Assay (ADP-Glo, 1 mM ATP).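 Also: 30 min kinase reaction at 22 °C with 100 µM peptide substrate.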 Particulars: Table 3, read-out: CSNK1A1 high ATP assay IC50 [mol/l] (median). It counts as biochemical. Here is the method: CSNK1A1-inhibitory activity of compounds of the present invention in presence of 1 mM adenosine-tri-phosphate (ATP) was quantified employing the CSNK1A1-high-ATP-assay as described in the following paragraphs. In essence, the enzyme activity is measured by quantification of the adenosine-di-phosphate (ADP), which is generated as a co-product of the enzyme reaction, via the “ADP-Glo™ Kinase Assay” kit from the company Promega. This detection system works as follows: In a first step the ATP not consumed in the kinase reaction is quantitatively converted to cAMP employing an adenylate cyclase (“ADP-Glo-reagent”), then the adenylate cyclase is stopped and the ADP generated in the kinase reaction converted to ATP which generates in a luciferase-based reaction a glow-luminescence signal (“Kinase Detection Reagent”).
Recombinant fusion protein of N-terminal Glutathion-S-Transferase (GST) and full-length human CSNK1A1, expressed by baculovirus infected insect cells and purified via Glutathion affinity chromatography, was purchased from Life Technologies (product no. PV4174) and used as enzyme. As substrate for the kinase reaction the biotinylated peptide biotin-Ahx-KRRRAL-pS-VASLPGL (C-terminus in amide form) was used which can be purchased e.g. from the company Biosyntan (Berlin-Buch, Germany).
For the assay 50 nl of a 100 fold concentrated solution of the test compound in DMSO was pipetted into a white low volume 384-well microtiter plate (Greiner Bio-One, Frickenhausen, Germany), 2 μL of a solution of CSNK1A1 in aqueous assay buffer [50 mM HEPES pH 7.5, 10% (v/v) glycerol, 10 mM MgCl2, 50 mM NaCl, 1 mM dithiothreitol, 0.01% (w/v) bovine serum albumin, 0.01% (v/v) Triton X-100] were added and the mixture was incubated for 15 min at 22° C. to allow pre-binding of the test compounds to the enzyme before the start of the kinase reaction. […] The concentration of CSNK1A1 was adjusted depending of the activity of the enzyme lot and was chosen appropriate to have the assay in the linear range, a typical concentration is about 0.4 ng/μL. The reaction was stopped by the addition of 2.5 μL of “ADP-Glo-reagent” (1:1.5 fold diluted with water) and the resulting mixture was incubated at 22° C. for 1 h to convert the ATP not consumed in the kinase reaction completely […]. Subsequently 2.5 μL of the “kinase detection reagent” (1.2 fold more concentrated than recommended by the producer) were added, the resulting mixture was incubated at 22° C. for 1 h and then the luminescence measured with a suitable measurement instrument (e.g. Viewlux™ from Perkin-Elmer). The amount of emitted light was taken as a measure for the amount of ADP generated and thereby for the activity of the CSNK1A1.
(ADP-Glo first removes unused ATP, then detects ADP through luciferase.)

For another assay, the target named is T2, full-length human CSNK1D (Homo sapiens, UniProt P48730).
T2 construct: N-terminal Glutathion-S-Transferase (GST) and full-length human CSNK1D; purchased Life Technologies PV3665; host or cells: baculovirus infected insect cells
As to the kind of experiment: CSNK1D Assay (ADP-Glo, 1 μM ATP). It counts as biochemical. Particulars: Table 3, read-out: CSNK1D IC50 [mol/l] (median). Here is the method: CSNK1D-inhibitory activity of compounds of the present invention in presence of 1 μM adenosine-tri-phosphate (ATP) was quantified employing the CSNK1 D assay as described in the following paragraphs. In essence, the enzyme activity is measured by quantification of the adenosine-di-phosphate (ADP), which is generated as a co-product of the enzyme reaction, via the “ADP-Glo™ Kinase Assay” kit from the company Promega. This detection system works as follows: In a first step the ATP not consumed in the kinase reaction is quantitatively converted to cAMP employing an adenylate cyclase (“ADP-Glo-reagent”), then the adenylate cyclase is stopped and the ADP generated in the kinase reaction converted to ATP which generates in a luciferase-based reaction a glow-luminescence signal (“Kinase Detection Reagent”).
Recombinant fusion protein of N-terminal Glutathion-S-Transferase (GST) and full-length human CSNK1D, expressed by baculovirus infected insect cells and purified via Glutathion affinity chromatography, was purchased from Life Technologies (product no. PV3665) and used as enzyme. As substrate for the kinase reaction the biotinylated peptide Btn-Ahx-[…] (C-terminus in amide form) was used which can be purchased e.g. from the company Biosyntan (Berlin-Buch, Germany).
For the assay 50 nl of a 100 fold concentrated solution of the test compound in DMSO was pipetted into a white 1536-well microtiter plate (Greiner Bio-One, Frickenhausen, Germany), 2 μL of a solution of CSNK1D in aqueous assay buffer [50 mM HEPES pH 7.5, 10% (v/v) glycerol, 10 mM MgCl2, 50 mM NaCl, 1 mM dithiothreitol, 0.01% (w/v) bovine serum albumin, 0.01% (v/v) Triton X-100] were added and the mixture was incubated for 15 min at 22° C. to allow pre-binding of the test compounds to the enzyme before the start of the kinase reaction. […] The concentration of CSNK1D was adjusted depending of the activity of the enzyme lot and was chosen appropriate to have the assay in the linear range, a typical concentration is about 0.5 ng/μL. The reaction was stopped by the addition of 2.5 μL of “ADP-Glo-reagent” (1:1.5 fold diluted with water) and the resulting mixture was incubated at 22° C. for 1 h to convert the ATP not consumed in the kinase reaction completely […]. Subsequently 2.5 μL of the “kinase detection reagent” (1.2 fold more concentrated than recommended by the producer) were added, the resulting mixture was incubated at 22° C. for 1 h and then the luminescence measured with a suitable measurement instrument (e.g. Viewlux™ from Perkin-Elmer). The amount of emitted light was taken as a measure for the amount of ADP generated and thereby for the activity of the CSNK1D.

T2 sequence (P48730 whole entry): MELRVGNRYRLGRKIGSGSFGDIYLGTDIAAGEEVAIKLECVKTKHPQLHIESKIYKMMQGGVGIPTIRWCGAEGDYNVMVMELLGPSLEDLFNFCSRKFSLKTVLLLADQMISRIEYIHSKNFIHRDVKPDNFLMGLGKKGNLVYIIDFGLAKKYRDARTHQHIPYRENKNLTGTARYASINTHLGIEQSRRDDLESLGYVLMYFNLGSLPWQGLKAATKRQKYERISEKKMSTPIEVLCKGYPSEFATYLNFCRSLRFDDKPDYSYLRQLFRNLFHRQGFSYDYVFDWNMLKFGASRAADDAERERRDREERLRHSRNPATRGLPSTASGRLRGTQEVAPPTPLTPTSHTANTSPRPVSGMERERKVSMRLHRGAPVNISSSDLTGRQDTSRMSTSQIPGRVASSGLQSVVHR
T1 sequence (P48729 whole entry): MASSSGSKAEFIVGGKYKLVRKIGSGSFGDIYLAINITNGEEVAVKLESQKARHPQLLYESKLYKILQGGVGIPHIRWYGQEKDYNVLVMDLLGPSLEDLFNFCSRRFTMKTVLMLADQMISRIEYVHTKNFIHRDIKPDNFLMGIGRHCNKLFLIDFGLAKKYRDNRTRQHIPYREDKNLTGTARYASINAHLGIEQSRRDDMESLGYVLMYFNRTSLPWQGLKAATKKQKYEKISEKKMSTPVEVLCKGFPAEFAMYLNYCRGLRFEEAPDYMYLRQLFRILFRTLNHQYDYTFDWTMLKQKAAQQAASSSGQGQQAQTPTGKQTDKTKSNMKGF

Take `O=C(Nc1cc(-c2[nH]c3nccnc3c2-c2ccccn2)ccn1)C(CC(F)(F)F)c1ccc(F)cc1` (single isomer, unassigned) [Example 121, (2R or S)-4,4,4-trifluoro-2-(4-fluorophenyl)-N-{4-[7-(pyridin-2-yl)-5H-pyrrolo[2,3-b]pyrazin-6-yl]pyridin-2-yl}butanamide]: the IC50 in assay [1] amounted to 946 nM; on full-length human CSNK1D, 62.9 nM.
In the case of `O=C(Nc1cc(-c2[nH]c3c(CC4CC4)cc(F)nc3c2-c2ccccn2)ccn1)C(CC(F)F)c1ccc(F)cc1` (single isomer, unassigned) [Example 47, (2R or S)—N-{4-[7-(cyclopropylmethyl)-5-fluoro-3-(pyridin-2-yl)-1H-pyrrolo[3,2-b]pyridin-2-yl]pyridin-2-yl}-4,4-difluoro-2-(4-fluorophenyl)butanamide], the IC50 is 31.6 nM in assay [1] and 59 nM at full-length human CSNK1D.
For `Cc1cnc2c(-c3ccccn3)c(-c3ccnc(NC(=O)C(CC(F)F)c4ccc(F)cc4)c3)[nH]c2c1` (single isomer, unassigned) [Example 8, 4,4-difluoro-2-(4-fluorophenyl)-N-{4-[6-methyl-3-(pyridin-2-yl)-1H-pyrrolo[3,2-b]pyridin-2-yl]pyridin-2-yl}butanamide] the same measures were 8.57 nM and 4.01 nM.
Taken in the same sequence, the figures for `O=C(Nc1cc(-c2[nH]c3c(OC4CC4)cc(F)nc3c2-c2ccccn2)ccn1)C(CC(F)F)c1ccc(F)cc1` (racemic) [Example 42, (rac)-N-{4-[7-(cyclopropyloxy)-5-fluoro-3-(pyridin-2-yl)-1H-pyrrolo[3,2-b]pyridin-2-yl]pyridin-2-yl}-4,4-difluoro-2-(4-fluorophenyl)butanamide] were 8.22 nM and 14.4 nM.
For `O=C(Nc1cc(-c2[nH]c3c(CC4CC4)cc(F)nc3c2-c2ccccn2)ccn1)C(CC(F)F)c1ccc(F)cc1` (racemic) [Example 46, (2RS)—N-{4-[7-(cyclopropylmethyl)-5-fluoro-3-(pyridin-2-yl)-1H-pyrrolo[3,2-b]pyridin-2-yl]pyridin-2-yl}-4,4-difluoro-2-(4-fluorophenyl)butanamide] the same measures were 23.2 nM and 19.2 nM.
For `O=C(Nc1cc(-c2[nH]c3ccc(F)nc3c2-c2cc(F)ccn2)ccn1)C(CC(F)F)c1ccc(F)cc1` (single isomer, unassigned) [Example 97, (2R or S)-4,4-difluoro-N-{4-[5-fluoro-3-(4-fluoropyridin-2-yl)-1H-pyrrolo[3,2-b]pyridin-2-yl]pyridin-2-yl}-2-(4-fluorophenyl)butanamide], the IC50 amounted to 36 nM in assay [1] and 67 nM at full-length human CSNK1D.
For `O=C(Nc1cc(-c2[nH]c3c(N4CCNCC4)ccnc3c2-c2ccccn2)ccn1)C(CC(F)F)c1ccc(F)cc1` (single isomer, unassigned) [Example 93, (2R or S)-4,4-difluoro-2-(4-fluorophenyl)-N-{4-[7-(piperazin-1-yl)-3-(pyridin-2-yl)-1H-pyrrolo[3,2-b]pyridin-2-yl]pyridin-2-yl}butanamide] the same measures were 5.35 nM and 17.3 nM.
For `Cc1cc2[nH]c(-c3ccnc(NC(=O)C(CC(F)F)c4ccc(F)cc4)c3)c(-c3ccccn3)c2nc1F` (single isomer, unassigned) [Example 35, 4,4-difluoro-N-{4-[5-fluoro-6-methyl-3-(pyridin-2-yl)-1H-pyrrolo[3,2-b]pyridin-2-yl]pyridin-2-yl}-2-(4-fluorophenyl)butanamide], the IC50 in assay [1] was determined as 2.69 nM; on full-length human CSNK1D, 3.7 nM.
Taken in the same sequence, the figures for `O=C(Nc1cc(-c2[nH]c3c(OCC(F)(F)F)ncnc3c2-c2ccccn2)ccn1)C(CC(F)F)c1ccc(F)cc1` (racemic) [Example 122, (2RS)-4,4-difluoro-2-(4-fluorophenyl)-N-{4-[7-(pyridin-2-yl)-4-(2,2,2-trifluoroethoxy)-5H-pyrrolo[3,2-d]pyrimidin-6-yl]pyridin-2-yl}butanamide] were 29.9 nM and 7.04 nM.
Taken in the same sequence, the figures for `O=C(Nc1cc(-c2[nH]c3c(OC4CC4)cc(F)nc3c2-c2ccccn2)ccn1)C(CC(F)F)c1ccc(F)cc1` (single isomer, unassigned) [Example 43, N-{4-[7-(cyclopropyloxy)-5-fluoro-3-(pyridin-2-yl)-1H-pyrrolo[3,2-b]pyridin-2-yl]pyridin-2-yl}-4,4-difluoro-2-(4-fluorophenyl)butanamide] were 10.2 nM and 7.64 nM.
Take `O=C(Nc1cc(-c2[nH]c3nccnc3c2-c2ccccn2)ccn1)C(CC(F)(F)F)c1ccc(F)cc1` (single isomer, unassigned) [Example 120, (2R or S)-4,4,4-trifluoro-2-(4-fluorophenyl)-N-{4-[7-(pyridin-2-yl)-5H-pyrrolo[2,3-b]pyrazin-6-yl]pyridin-2-yl}butanamide]: the values for the IC50 (in assay [1]; on full-length human CSNK1D) were 35.8 nM and 4.35 nM, respectively.
For `O=C(Nc1cc(-c2[nH]c3c(OCC4CC4)ncnc3c2-c2ccccn2)ccn1)C(CC(F)F)c1ccc(F)cc1` (single isomer, unassigned) [Example 129, (2R or S)—N-{4-[4-(cyclopropylmethoxy)-7-(pyridin-2-yl)-5H-pyrrolo[3,2-d]pyrimidin-6-yl]pyridin-2-yl}-4,4-difluoro-2-(4-fluorophenyl)butanamide] the same measures were 10.3 nM and 5.94 nM.
Take `O=C(Nc1cc(-c2[nH]c3cncnc3c2-c2ccccn2)ccn1)C(CC(F)F)c1ccc(F)cc1` (single isomer, unassigned; (-)) [Example 14, (−)-4,4-difluoro-2-(4-fluorophenyl)-N-{4-[7-(pyridin-2-yl)-5H-pyrrolo[3,2-d]pyrimidin-6-yl]pyridin-2-yl}butanamide]: the IC50 worked out at 2140 nM in assay [1] and 28.5 nM on full-length human CSNK1D.
For `CC(C)(O)c1cc(F)nc2c(-c3ccccn3)c(-c3ccnc(NC(=O)C(CC(F)F)c4ccc(F)cc4)c3)[nH]c12` (single isomer, unassigned) [Example 99, (2R or S)-4,4-difluoro-N-{4-[5-fluoro-7-(2-hydroxypropan-2-yl)-3-(pyridin-2-yl)-1H-pyrrolo[3,2-b]pyridin-2-yl]pyridin-2-yl}-2-(4-fluorophenyl)butanamide], the results for the IC50 (in assay [1]; on full-length human CSNK1D) were 3.55 nM and 3.36 nM, respectively.
